“Also recorded” adds a separate entry of the source. Peptide text beside a SMILES is read from it.
Columns and labels:
HaCaT cells [1] = test: Cell death assay in HaCaT cells with SOR-C13 fragments (Example 5); format: cell-based, human
Method: Solutions of each of the peptides listed in Table 2 were made based on formulation weight without correction of purity in PBS at a 100 mM stock concentration. Stock solutions were sterilized by passing through a 0.2 μm syringe filter prewashed with PBS. Stocks of peptides were kept in aliquots at −20° C. during the study. Glycolic acid was made in a 5M stock in PBS and filtered using a 0.2 μm syringe filter and kept at −20° C.
Human immortalized keratinocyte HaCaT cells were cultured as described in Example 3.
HaCaT cells were plated at ˜8×10^5/well in each well of the 12-well tissue culture plates in triplicates in 2 ml culture media. Twenty-four (24) hours post-plating, cells were treated with PBS, or peptide stocks at 100 and 1000 μM (in triplicates), or glycolic acid at 20 mM (single data point). The Cell Death Assay was otherwise performed as described in Example 3.

HaCaT cells [2] = test: Cell death assay in HaCaT keratinocytes (Example 3); format: cell-based, human
Method: In an initial experiment, various concentrations of SOR-C13 and SOR-C27 were tested on human keratinocytes (HaCaT cells) for their ability to cause cell death. The negative control was Phosphate Buffered Saline (PBS) and the positive control was Glycolic Acid (20 mM), a known activator of TRPV3. At the concentrations used (10, 100 and 1000 μM) only the 1000 μM concentration produced a statistically significant increase in cell death over PBS (FIG. 6). […] The two peptides appeared to be indistinguishable in their activity with respect to the number of dead cells
Both peptides were dissolved in PBS at 30 mM concentration at ambient temperature based on the peptide content with a correction factor (SOR-C13 concentration was multiplied by 1.19, while SOR-C27 concentration was multiplied by 1.29). Stock solutions were sterilized by passing through a 0.2 μm syringe filter prewashed with PBS. Stocks of peptides were kept at −20° C. during the study.
Human immortalized keratinocyte HaCaT cells (Cat. #T0020001) were from Addexbio Technologies (San Diego, California, USA). In general, HaCaT cells were cultured in 37° C. CO2 incubator in DEME with 1.0 g/L glucose (Lonza, Cat #12-707F) with 10% FBS. Glutamine (2 mM), penicillin (100 I.U.) and streptomycin (100 μg/ml) were added to the media. Cells were sub-cultured twice per week using Trypsin-0.25% EDTA to detach cells.
HaCaT cells were plated at ˜8×10^5/well in each well of the 12-well tissue culture plates in triplicates in 2 ml culture media. Twenty-four (24) hours post-plating, cells were treated with PBS, or SOR-C13 at 10, 100 and 1000 μM, or SOR-C27 at 10, 100 and 1000 μM, or glycolic acid at 20 mM.
At 72 hours post-treatment, the incubation was terminated and supernatant was collected. Attached cells were washed with 2 ml PBS, and trypsinized. Suspension of cells was combined with supernatant and spun at 1000 g for 5 minutes. The cell pellet was then resuspended in 100 μl PBS for cell counting using trypan blue exclusion.
Student's t-test was used to compare the group treated with a test article vs. the group treated with PBS. Standard errors of mean (SEM) were used to represent variation of data.

[3] = target: T1, TRPV3 channels expressed in HEK-293 cells (Homo sapiens, UniProt Q8NET8); test: Patch-clamp testing of TRPV3 channel activity in transfected HEK-293 cells; format: cell-based
T1 construct: expressed in transfected cells; host or cells: HEK-293 cells, transient transfection
T1 sequence (Q8NET8 1-790): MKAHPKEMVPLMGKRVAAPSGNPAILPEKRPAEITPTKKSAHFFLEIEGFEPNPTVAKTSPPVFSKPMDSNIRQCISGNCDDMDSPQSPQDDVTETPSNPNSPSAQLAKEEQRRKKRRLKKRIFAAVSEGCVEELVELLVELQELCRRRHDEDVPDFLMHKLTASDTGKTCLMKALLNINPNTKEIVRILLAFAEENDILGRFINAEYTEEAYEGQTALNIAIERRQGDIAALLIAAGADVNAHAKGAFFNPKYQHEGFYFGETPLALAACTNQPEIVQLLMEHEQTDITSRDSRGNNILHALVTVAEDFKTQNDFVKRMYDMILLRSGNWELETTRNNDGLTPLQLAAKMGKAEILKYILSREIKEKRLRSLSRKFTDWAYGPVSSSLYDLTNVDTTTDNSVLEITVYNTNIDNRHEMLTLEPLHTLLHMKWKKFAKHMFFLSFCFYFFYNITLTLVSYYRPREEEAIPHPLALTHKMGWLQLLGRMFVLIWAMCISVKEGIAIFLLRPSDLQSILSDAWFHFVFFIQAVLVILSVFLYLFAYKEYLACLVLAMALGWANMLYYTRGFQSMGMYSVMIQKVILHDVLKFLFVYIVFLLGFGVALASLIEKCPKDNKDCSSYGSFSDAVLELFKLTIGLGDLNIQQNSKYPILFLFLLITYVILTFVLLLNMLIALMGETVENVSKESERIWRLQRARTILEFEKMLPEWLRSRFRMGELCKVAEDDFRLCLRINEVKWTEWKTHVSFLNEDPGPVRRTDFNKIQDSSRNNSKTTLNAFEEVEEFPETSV
Method: SOR-C13, SOR-C27 and SOR-N54 were tested using a patch clamp screen to determine whether the peptide had any effect on the channel activity of TRPV3. Ruthenium red, a known antagonist of TRPV3 and 2-Aminoethoxydiphenyl Borate (2-APB) a known activator of TRPV3 were used as controls.
HEK 293 cells were maintained in ϕ30 mm cell culture plate in DMEM media supplemented with 10% fetal bovine serum and penicillin/streptomycin. Cells were grown in a humidified atmosphere of 95% air/5% CO2 at 37° C. in a cell culture incubator.
The cells from 70-90% confluence were prepared for transfection. For transient expression in HEK-293 cells 1 μg plasmid cDNA and pEGFP (in vivo reporter of gene expression) were used.
Recordings were performed at 20˜23° C. Currents were sampled using Digidata 1440A, amplified, and filtered at 2 kHz using Axopatch 200B, then acquired and analyzed using pClamp 10.0 (Molecular Devices, Sunny vales, CA, USA).
The pipette solution and bath solution contained 140 mM CsCl, 4 mM MgCl2, 10 mM EGTA, CsOH pH=7.3 and 130 mM NaCl, 5 mM KCl, 2 mM CaCl2), 1 mM MgCl2, 25 mM HEPES, 30 mM Glucose, pH=7.3, respectively.
Each peptide was diluted in the bath solution to the desired concentration (0.01 μM, 0.03 μM, 0.1 μM, 0.3 μM, 1 μM, 3 μM, or 10 μM), respectively.

HaCaT cells [4] = test: Wound healing (scratch gap closure) assay in HaCaT cells (Example 4); format: cell-based, human; conditions: 24 hours; for effect on migration of HaCaT cells through the scratch (words): 100 μM
Method: SOR-C13 and SOR-C27 were tested for their ability to promote tissue repair in a human keratinocytes (HaCaT) model of wound healing. In this model, cells are grown to confluency and then a gap is made in the sheet of cells by scratching the surface of the cells. After treating the cells for 24 hours, the closure of the gap, and the state of the cells in terms of polarization and mobility into the gap, are measured as a surrogate for activation of the wound healing response and the proliferation and/or migration of cells involved in tissue repair.
HaCaT cells were plated at 4×10^5 per well in 12-well tissue culture plates in MEGM Bullet Kit (Lonza, Cat. #CC-3150) containing bovine pituitary extracts (BPE), hEGF, insulin, and hydrocortisone. The total volume was 2 ml. About 24 hours later, a gap at the bottom of each well was generated by scratching with a sterile pipette tip. The supernatant was aspirated and cells were washed gently once with PBS. Fresh media (MEGM Bullet Kit, 2 ml) was added after the wash. Cells were treated in duplicates with PBS, or SOR-C13 at 10, 100 and 1000 μM, or SOR-C27 at 10, 100 and 1000 μM, and 100 μM valproic acid. After 24 hours, each well was examined under the microscope to semi-quantify the gap closure by cell migration. A digital camera fixed to the microscope was used to capture images of cells.
Under visual inspection, the wound healing results was scored as: • “−”: minimal cell polarization toward wound, no initiation of cell protrusion into the gap; no change in the wound gap; • “+”: cell polarization toward wound was observed; cell protrusion was observed; cell migration started but gap size is between 75 to 100% of original wound gap; • “++”: cell polarization toward the wound was observed; cell protrusion was observed; cell migration across the gap was observed, and gap size ≤½ of original wound gap; • “+++”: cell polarization toward wound was observed; cell protrusion was observed; cell migration across the gap was observed, and gap size ≤⅓ of original wound gap. Results

O=C(O)CO [Glycolic acid, reference compound]
number of dead cells (HaCaT cells [1]; 20 mM, 72-hour treatment, single data point): ~4.5×10^4 per well | induction of cell death above PBS (HaCaT cells [1]; 20 mM, 72 hours): no increase in cell death above the PBS treatment | induction of cell death (words) (HaCaT cells [2]; 20 mM, 72 hours): dramatically induced cell death | number of dead cells (HaCaT cells [2]; 20 mM, 72 hours): ~9.1×10^4 per well

N.N.N.N.N.N.N.N.N.N.N.N.N.N.[Cl-].[Cl-].[Cl-].[Cl-].[Cl-].[Cl-].[O-2].[O-2].[Ru+3].[Ru+3].[Ru+4] [Ruthenium red]
effect on activation of TRPV3 channel by 2-APB ([3]; control inhibitor, 100 μM 2-APB): inhibited activation of the channel by 2-APB

CC(C)C[C@H](NC(=O)CNC(=O)CNC(=O)[C@H](CCC(=O)O)NC(=O)[C@@H](NC(=O)[C@H](CC(=O)O)NC(=O)[C@H](CC(N)=O)NC(=O)[C@H](CO)NC(=O)[C@H](CO)NC(=O)[C@H](CC(C)C)NC(=O)[C@H](CCCCN)NC(=O)CNC(=O)[C@@H](N)CCC(=O)O)[C@@H](C)O)C(=O)N[C@@H](CS)C(=O)N[C@@H](CCCCN)C(=O)N[C@@H](CCC(=O)O)C(=O)N[C@@H](Cc1ccccc1)C(=O)N[C@@H](CC(C)C)C(=O)N[C@@H](Cc1c[nH]cn1)C(=O)N1CCC[C@H]1C(=O)N[C@@H](CO)C(=O)N[C@@H](CCCCN)C(=O)N[C@H](C(=O)N[C@@H](CC(=O)O)C(=O)N[C@@H](CC(C)C)C(=O)N1CCC[C@H]1C(=O)N[C@@H](CCCNC(=N)N)C(=O)O)C(C)C [SOR-C27] (H-EGKLSSNDTEGGLCKEFLHPSKVDLPR-OH)
EC50 [3]: 94.1 nM | effect on migration of HaCaT cells over the tested concentrations (HaCaT cells [4]; 10, 100, 1000 μM): did not appear to exert a significant effect; also recorded: no significant visual difference; also recorded: had no clear effect on promoting migration | increase in cell death compared to PBS treatment (HaCaT cells [2]; 1 mM, 72-hour incubation): ~2 fold | induction of cell death compared to PBS (HaCaT cells [2]; 1 mM, 72 hours, p<0.05): significantly induced cell death | number of dead cells (HaCaT cells [2]; 1 mM, 72 hours, trypan blue exclusion): 2.3×10^4 /well | induction of cell death compared to PBS (HaCaT cells [2]; 10 or 100 μM, 72 hours): no significant difference in the numbers of dead cells; also recorded: did not have a significant effect

CCCC(CCC)C(=O)O [Valproic acid, reference compound]
effect on migration of HaCaT cells through the scratch (words) (HaCaT cells [4]): appeared to block the migration | effect on migration of HaCaT cells through the scratch (words) (HaCaT cells [4]; listed as valproic acid): did not appear to induce migration

HPSKVDLPR [SOR-C9]
induction of cell death (words) (HaCaT cells [1]; 100 μM, 72 hours, p<0.05): slight but significant increase of cell death | induction of cell death (words) (HaCaT cells [1]; 100 μM, 72 hours, p<0.05, listed as C9): significant cell death induction

SKVDLPR [SOR-C7]
induction of cell death (words) (HaCaT cells [1]; 100 μM, 72 hours, p<0.05): slight but significant increase of cell death | induction of cell death (words) (HaCaT cells [1]; 100 μM, 72 hours, p<0.05, listed as C7): significant cell death induction | induction of cell death (words) (HaCaT cells [1]; 1000 μM, 72 hours, p<0.05): slight but significant increase of cell death

SOR-N54: full length soricidin peptide, fifty-four amino acid paralytic peptide (DCSQDCAACSILARPAELNTETCILECEGKLSSNDTEGGLCKEFLHPSKVDLPR; Soricidin; UniProt P0C2P6 1-54, looked up)
effect on TRPV3 channel activity / activation of TRPV3 by 2-APB ([3]; 10 μM peptide in the presence of 100 μM 2-APB): did not show any effect; also recorded: did not alter the activation of TRPV3

Source: patent publication US12239729B2, “TRPV3 agonists for the treatment of skin conditions” (Soricimed Biopharma Inc., priority 2012, dated 2025)
